For 33 compounds, IC50 results are on record in patent US20260166039A1 (SCHRÖDINGER, INC., priority 2022, published 2026).

T1 sequence (P30291 299-569 limits assumed): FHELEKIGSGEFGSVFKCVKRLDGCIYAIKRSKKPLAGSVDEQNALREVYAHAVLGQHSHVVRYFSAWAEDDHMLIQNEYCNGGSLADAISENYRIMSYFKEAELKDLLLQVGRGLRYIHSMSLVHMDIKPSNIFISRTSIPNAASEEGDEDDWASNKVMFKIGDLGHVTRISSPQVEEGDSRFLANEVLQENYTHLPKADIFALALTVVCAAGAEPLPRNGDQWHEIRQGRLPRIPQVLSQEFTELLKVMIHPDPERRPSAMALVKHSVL

The first assay concerns the target T1, Wee1 kinase domain (Homo sapiens, UniProt P30291).
T1 construct: Wee1 kinase domain was purchased from Carna (catalog #05-177); purchased Carna 05-177
As to the kind of experiment: Wee1 Kinase Biochemical Assay (ADP-Glo). The following applies: 1 nM Wee1 enzyme, 15 uM ATP, 4 hours at 25° C. In short, it runs like this:
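Carna Wee1 kinase domain at 1 nM, with 15 uM ATP and 2 ng/mL poly(Lys,Tyr 4:1) substrate in 40 mM Tris-HCl, 20 mM MgCl2, 0.1 mg/mL BSA, 2 mM DTT, run 4 h at 25° C. ADP formation read by ADP-Glo luminescence. Percent inhibition normalised to DMSO and saturating-inhibitor controls.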
In the case of `CC(C)n1ccc(Nc2ncc3c(n2)N(c2cccc(N=S(C)(C)=O)n2)[C@@H]2CC(C)(C)OC[C@]32C)n1` (single isomer, unassigned) [Example 832], the IC50 (usually the midpoint of a concentration-inhibition curve) was less than 10 nM.

Still in this assay, the particulars now being: Wee1 kinase domain, 15 uM ATP, ADP-Glo.
In the case of `CNCc1cccc(N2c3nc(Nc4ccc(N5CC6CC5CO6)cc4)ncc3[C@]3(C)COC(C)(C)C[C@H]23)n1` (stereo in doubt) [Example 42, (4bS,8aS)-N-(4-((1R,4R)-2-oxa-5-azabicyclo[2.2.1]heptan-5-yl)phenyl)-4b,7,7-trimethyl-9-(6-((methylamino)methyl)pyridin-2-yl)-4b,5,7,8,8a,9-hexahydropyrano[3′,4′:4,5]pyrrolo[2,3-d]pyrimidin-2-amine], the IC50 fell in the range of 10 to 100 nM. `CN[C@H]1CCN(c2ccc(Nc3ncc4c(n3)N(c3cccc(N5C(=O)OC[C@@H]5C)n3)[C@H]3CC(C)(C)OC[C@@]43C)cc2)C1` (single isomer, unassigned) [Example 316]: the IC50 is 10 to 100 nM. Still for that read-out and setting: the value for `CNCc1cccc(N2c3nc(Nc4ccc(C5CCOCC5)cc4)ncc3[C@]3(C)COC(C)(C)C[C@H]23)n1` (single isomer, unassigned) [Example 36] was 10 to 100 nM; that for `Cc1cc(Nc2ncc3c(n2)N(c2cccc(N=S(C)(C)=O)n2)[C@H]2CC(C)(C)OC[C@@]32C)ccc1[C@@H]1CCN(C)C1` (single isomer, unassigned) [Example 146] was 10 to 100 nM; that for `CNCc1cccc(N2c3nc(Nc4ccc(C5CCOCC5)nc4)ncc3[C@]3(C)COC(C)(C)C[C@H]23)n1` (single isomer, unassigned) [Example 55] was not below 1000 nM. As for `CN1CCC[C@H]1c1ccc(Nc2ncc3c(n2)N(c2cccc(N=S(C)(C)=O)n2)[C@H]2CC(C)(C)OC[C@@]32C)cc1` (single isomer, unassigned) [Example 125], the half-maximal inhibitory concentration (IC50) was 10 to 100 nM. In turn, `CN1CC(c2ccc(Nc3ncc4c(n3)N(c3cccc(N=S(C)(C)=O)n3)[C@H]3CC(C)(C)OC[C@@]43C)cc2)C1` (single isomer, unassigned) [Example 166] returned an IC50 of 10 to 100 nM. Still for that read-out and setting: the value for `CNCc1cccc(N2c3nc(Nc4ccc(S(C)(=O)=O)cc4)ncc3[C@]3(C)COC(C)(C)C[C@H]23)n1` (single isomer, unassigned) [Example 33] was 100 to 1000 nM; that for `CN1CCc2ccc(Nc3ncc4c(n3)N(c3cccc(N=S(C)(C)=O)n3)[C@H]3CC(C)(C)OC[C@@]43C)cc2C1` (single isomer, unassigned) [Example 110] was 10 to 100 nM; that for `CN1CC[C@H](n2cc(Nc3ncc4c(n3)N(c3cccc(N=S(C)(C)=O)n3)[C@H]3CC(C)(C)OC[C@@]43C)cn2)C1` (single isomer, unassigned) [Example 197] was 100 to 1000 nM. Take `C[C@H]1COC(=O)N1c1cccc(N2c3nc(Nc4ccc(C5CN(C)C5)cc4)ncc3[C@]3(C)COC(C)(C)C[C@H]23)n1` (single isomer, unassigned) [Example 309]: the IC50 lay in the range of 10 to 100 nM. Same read-out and setting: to `CC1(C)C[C@H]2N(c3cccc(N=S(C)(C)=O)n3)c3nc(Nc4ccc5cnnn5c4)ncc3[C@@]2(C)CO1` (single isomer, unassigned) [Example 362] belongs less than 10 nM; to `CC1(C)C[C@H]2N(c3cccc(N=S(C)(C)=O)n3)c3nc(Nc4ccc5cnoc5c4)ncc3[C@@]2(C)CO1` (single isomer, unassigned) [Example 381], less than 10 nM.

The same assay, now with this note: class symbols; 1 nM Wee1 enzyme, 15 uM ATP, 4 hours at 25° C.
Compound `CN[C@@H](C)c1cc(C)nc(N2c3nc(Nc4ccc(N5CCOCC5)cc4)ncc3[C@@]3(C)COC(C)(C)C[C@@H]23)c1` (single isomer, unassigned) [Example 560] returned an IC50 of 10 to 100 nM. Consider `CN1CCN(c2ccc(Nc3ncc4c(n3)N(c3cccc(N=S(C)(C)=O)n3)[C@@H]3CC(C)(C)OC[C@]43C)cn2)CC1` (single isomer, unassigned) [Example 509], for which the half-inhibitory concentration (IC50) is less than 10 nM. The same measure, in the same setting: the value for `CC1(C)C[C@@H]2N(c3cccc(N4CCOC4=O)n3)c3nc(Nc4ccc([C@H]5CCNC5)cc4)ncc3[C@]2(C)CO1` [Example 609, 3-(6-((4bS,8aS)-4b,7,7-trimethyl-2-((4-((R)-pyrrolidin-3-yl)phenyl)amino)-4b,7,8,8a-tetrahydropyrano[3′,4′:4,5]pyrrolo[2,3-d]pyrimidin-9(5H)-yl)pyridin-2-yl)oxazolidin-2-one] was 10 to 100 nM; that for `CC1(C)C[C@H]2N(c3cccc([C@@H]4CNCCO4)n3)c3nc(Nc4ccc(N5CCOCC5)cc4)ncc3[C@@]2(C)CO1` [Example 735, (4bR,8aR)-4b,7,7-trimethyl-9-(6-((S)-morpholin-2-yl)pyridin-2-yl)-N-(4-morpholinophenyl)-4b,5,7,8,8a,9-hexahydropyrano[3′,4′:4,5]pyrrolo[2,3-d]pyrimidin-2-amine] was 10 to 100 nM; that for `CC[C@@]1(O)CCc2ccc(N3c4nc(Nc5ccc(N6C[C@H]7C[C@@H]6CN7C)cc5)ncc4[C@@]4(C)COC(C)(C)C[C@@H]34)nc21` [Example 790, (R)-7-ethyl-2-((4bR,8aR)-4b,7,7-trimethyl-2-((4-((1R,4R)-5-methyl-2,5-diazabicyclo[2.2.1]heptan-2-yl)phenyl)amino)-4b,7,8,8a-tetrahydropyrano[3′,4′:4,5]pyrrolo[2,3-d]pyrimidin-9(5H)-yl)-6,7-dihydro-5H-cyclopenta[b]pyridin-7-ol] was less than 10 nM. On the same count and under the same terms, to `CNCc1cccc(N2c3nc(Nc4cccc(N5CCOCC5)c4)ncc3[C@]3(C)COC(C)(C)C[C@H]23)n1` (single isomer, unassigned) [Example 469] belongs 100 to 1000 nM; to `CN1[C@@H]2C[C@H]1CN(c1ccc(Nc3ncc4c(n3)N(c3cccc(N5CCOC5=O)n3)[C@H]3CC(C)(C)OC[C@@]43C)cc1)C2` [Example 701, 3-(6-((4bS,8aS)-4b,7,7-trimethyl-2-((4-((1R,5S)-6-methyl-3,6-diazabicyclo[3.1.1]heptan-3-yl)phenyl)amino)-4b,7,8,8a-tetrahydropyrano[3′,4′:4,5]pyrrolo[2,3-d]pyrimidin-9(5H)-yl)pyridin-2-yl)oxazolidin-2-one], 10 to 100 nM. Consider `CNCc1cccc(N2c3nc(Nc4ccc(N5CCOCC5)cc4)ncc3[C@]3(C)COCC[C@H]23)n1` (single isomer, unassigned) [Example 573], for which the 50% inhibitory concentration (IC50) was 100 to 1000 nM.

`CN1CC[C@H](c2ccc(Nc3ncc4c(n3)N(c3cccc(N5CCCC5=O)n3)[C@H]3CC(C)(C)OC[C@@]43C)cc2)C1` [Example 635, 1-(6-((4bS,8aS)-4b,7,7-trimethyl-2-((4-((R)-1-methylpyrrolidin-3-yl)phenyl)amino)-4b,7,8,8a-tetrahydropyrano[3′,4′:4,5]pyrrolo[2,3-d]pyrimidin-9(5H)-yl)pyridin-2-yl)pyrrolidin-2-one]: the half-maximal inhibitory concentration (IC50) was 10 to 100 nM. Still for that read-out and setting: to `CC1(C)C[C@@H]2N(c3cccc(C4CCNCC4)n3)c3nc(Nc4ccc(N5CCOCC5)cc4)ncc3[C@]2(C)CO1` (single isomer, unassigned) [Example 532] belongs 100 to 1000 nM. Same read-out and setting: to `CNCc1cccc(N2c3nc(Nc4ccc(-n5ccnc5)nc4)ncc3[C@]3(C)COC(C)(C)C[C@H]23)n1` (single isomer, unassigned) [Example 467] belongs not below 1000 nM. The same measure, in the same setting: the value for `CC[C@]1(O)CCc2ccc(N3c4nc(Nc5ccc(N6C[C@H]7C[C@@H]6CN7C)cc5)ncc4[C@@]4(C)COC(C)(C)C[C@@H]34)nc21` [Example 789, (S)-7-ethyl-2-((4bR,8aR)-4b,7,7-trimethyl-2-((4-((1R,4R)-5-methyl-2,5-diazabicyclo[2.2.1]heptan-2-yl)phenyl)amino)-4b,7,8,8a-tetrahydropyrano[3′,4′:4,5]pyrrolo[2,3-d]pyrimidin-9(5H)-yl)-6,7-dihydro-5H-cyclopenta[b]pyridin-7-ol] was less than 10 nM; that for `CC1(C)C[C@H]2N(c3cccc(N=S(C)(C)=O)n3)c3nc(NC(=O)c4ccccn4)ncc3[C@@]2(C)CO1` (single isomer, unassigned) [Example 407] was 10 to 100 nM. Consider `CC1(C)C[C@@H]2N(c3cccc(N4CCOC4=O)n3)c3nc(Nc4ccc(O[C@H]5CCNC5)cc4)ncc3[C@]2(C)CO1` [Example 612, 3-(6-((4bS,8aS)-4b,7,7-trimethyl-2-((4-(((S)-pyrrolidin-3-yl)oxy)phenyl)amino)-4b,7,8,8a-tetrahydropyrano[3′,4′:4,5]pyrrolo[2,3-d]pyrimidin-9(5H)-yl)pyridin-2-yl)oxazolidin-2-one], for which the IC50 lay in the range of 100 to 1000 nM. Same read-out and setting: the value for `CN1CC[C@@](C)(c2ccc(Nc3ncc4c(n3)N(c3cccc(N5CCOC5=O)n3)[C@H]3CC(C)(C)OC[C@@]43C)cc2)C1` [Example 671, 3-(6-((4bS,8aS)-2-((4-((S)-1,3-dimethylpyrrolidin-3-yl)phenyl)amino)-4b,7,7-trimethyl-4b,7,8,8a-tetrahydropyrano[3′,4′:4,5]pyrrolo[2,3-d]pyrimidin-9(5H)-yl)pyridin-2-yl)oxazolidin-2-one] was 10 to 100 nM; that for `CN[C@]1(C)CCc2ccc(N3c4nc(Nc5ccc(N6CCOCC6)cc5)ncc4[C@]4(C)COC(C)(C)C[C@H]34)nc21` (single isomer, unassigned) [Example 570] was 100 to 1000 nM. Take `CC1(C)C[C@H]2N(c3cccc(N=S(C)(C)=O)n3)c3nc(Nc4ccc(N5CC6(COC6)C5)cc4)ncc3[C@@]2(C)CO1` (single isomer, unassigned) [Example 508]: the IC50 is less than 10 nM. `CC1(C)C[C@H]2N(c3cccc(N=S(C)(C)=O)n3)c3nc(NC(=O)c4ccccc4)ncc3[C@@]2(C)CO1` (single isomer, unassigned) [Example 404] showed an IC50 of 10 to 100 nM. The same measure, in the same setting: the value for `CC1(C)C[C@@H]2N(c3cccc(N4CCOC4=O)n3)c3nc(Nc4ccc([C@@H]5CNCC5(F)F)cc4)ncc3[C@]2(C)CO1` [Example 681, 3-(6-((4bS,8aS)-2-((4-((R)-4,4-difluoropyrrolidin-3-yl)phenyl)amino)-4b,7,7-trimethyl-4b,7,8,8a-tetrahydropyrano[3′,4′:4,5]pyrrolo[2,3-d]pyrimidin-9(5H)-yl)pyridin-2-yl)oxazolidin-2-one] was 10 to 100 nM.
